Data set [1] is described as follows: Single-dose pharmacokinetics study in mice. Conditions: male CD1 mice, IP, 30 mg/kg; for pharmacokinetic profiles (half-lives) compared with reference compound: versus ACT-1004-1239; for half-life: mouse, blood, LC-MS/MS, read-out: PK half-life. It counts as in vivo. As for the experimental part:
Male CD1 mice were administered IP with compound dissolved in vehicle (10% HP-β-CD in 100 mM Citrate buffer, pH 7) at a dose of 30 mg/kg and mice were sacrificed at different time points (n=3 per time point) following compound administration. Blood samples were harvested at different time points and compound concentration was determined by LC-MS/MS.

The target in the next data set is T1, NanoLuc-hACKR3 (Homo sapiens, UniProt P25106).
T1 construct: expressed in transfected cells; host or cells: HEK293T (transient, PEI; membrane preparation)
The data set can be described thus: NanoBRET binding study (displacement of fluorescently labelled CXCL12). Conditions: displacement of 0.3 nM CXCL12-AF647; membranes of HEK293T cells expressing NanoLuc-ACKR3; 1 hour incubation; read-out: Affinity. As for the experimental part: Membranes of HEK293T cells that transiently express the NanoLuc-hACKR3 were produced. 2 million HEK293T cells were seeded per […] dish and were transfected the next day using a DNA/PEI-mix containing 0.25 μg plasmid DNA encoding for the ACKR3, 4.75 μg pcDEF3 plasmid DNA and 30 μg linear PEI. Two days after transfection, cells were collected in PBS and pelleted by centrifugation. Cell pellets were resuspended in ice-cold membrane buffer (15 mM Tris, 0.3 mM EDTA, 2 mM MgCl2, pH 7.4 at 4° C.) and were dounce-homogenized on ice by plunging the pestle […] with 1500 rpm. Cell homogenates were subsequently subjected to two freeze-thaw cycles using liquid nitrogen. Next, the cell homogenates were centrifuged at 40,000 g and pellets were resuspended in Tris-sucrose buffer (20 mM Tris, 250 mM Sucrose, pH 7.4 at 4° C.). Finally, the membrane samples were homogenized using a 23-gauge needle, snap-frozen with liquid nitrogen and stored until further experimentation at −80° C.
Binding reactions were measured in triplicate on white low-volume 384-well plates and started by combining 0.3 nM fluorescently labelled CXCL12 (CXCL12 labelled with a AF647® dye in a molar ratio of dye:peptide of 1:1, purchased from ALMAC, h-SDF-1α (AF647®), cat. No. CAF-11, Sequence:
[…](Ale xa647®)ALN), increasing concentrations of test compound (10^−5 M-10^−11 M) with 35 ng membranes (protein content) per well of HEK293T cells expressing the NanoLuc-ACKR3. All dilutions were prepared in HBSS supplemented with 0.2% BSA. After assembling the binding reaction, the plate was flash-centrifuged at 500 g. Binding reactions were then incubated for 1 hour after which NanoGlo substrate was added (310 times diluted from stock concentration) to a final volume of 13.5 μL. The reaction plate was again pulse-centrifuged to 500 g and the total light intensity was measured for 460 nm wavelength with 80 nm bandwidth and separately for wavelengths ≥610 nm using the PHERAstar-FSX (BMG Labtech, Ortenberg, Germany) with a dual emission filter. The ratio of light intensities (>610 nm over 460 nm) is a measure for the relative binding of CXCL12-A647 to the NanoLuc-ACKR3. The pharmacological data are presented in Appendix 1.

Another data set deals with CXCL12. The data set can be described thus: Target engagement study in mice (blood CXCL12 by ELISA). Type of data set: in vivo. To be noted: male CD1 mice, IP, 30 mg/kg; for target engagement compared with reference compound: 16 h, versus ACT-1004-1239. As for the experimental part:
Male CD1 mice were administered IP with compound dissolved in vehicle (10% HP-β-CD in 100 mM Citrate buffer, pH 7) at a dose of 30 mg/kg and mice were sacrificed 16 h (n=3 per time point) following compound administration. Blood samples were harvested and CXCL12 concentration was determined by CXCL12 ELISA kit.

A short description of data set [2]: In vitro microsomal stability assay (metabolic stability). Type of data set: in vitro ADME, mouse. Conditions: for half-life at 10 μM: mouse liver microsomes (male CD-1), NADPH regenerative system, 10 μM compound, 15, 30 or 60 minutes; for metabolic stability compared with reference compound: mouse liver microsomes, versus ACT-1004-1239. As for the experimental part: Mouse liver microsomes (from S9 liver fraction from male CD-1 mice) are co-incubated with an NADPH regenerative system (1.3 mM NADP+, 3.3. mM glucose-6-phoase, 3.3 mM MgCl2 and 0.4 units/ml glucose-6-phosphate-dehydrogenase) and 10 μM compound for 15, 30 or 60 minutes. Reaction was terminated by centrifugation at max speed and samples were analyzed by LC-MS.

SMILES strings stand for the structures. pKi: −log10 of the molar value. Structures can show the parent of a compound that is named as a salt.

T1 sequence (P25106 whole entry): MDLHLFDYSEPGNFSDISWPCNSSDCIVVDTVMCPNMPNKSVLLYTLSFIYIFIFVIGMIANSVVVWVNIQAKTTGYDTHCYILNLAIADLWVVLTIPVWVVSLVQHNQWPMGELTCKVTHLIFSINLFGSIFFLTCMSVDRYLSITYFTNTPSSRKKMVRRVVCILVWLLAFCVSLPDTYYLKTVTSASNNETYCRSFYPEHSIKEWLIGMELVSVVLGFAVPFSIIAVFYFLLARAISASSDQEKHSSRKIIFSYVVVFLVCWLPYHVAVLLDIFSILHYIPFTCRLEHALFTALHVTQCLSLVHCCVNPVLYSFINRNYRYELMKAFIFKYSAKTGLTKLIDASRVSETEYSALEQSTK

Take `O=C(NCC1CCN(Cc2ccc(N3CCCC3)cc2)CC1)c1cc(-c2ccc(F)cc2F)on1` [Molecule 44, 5-(2,4-difluorophenyl)-N-((1-(4-(pyrrolidin-1-yl)benzyl)piperidin-4-yl)methyl)isoxazole-3-carboxamide]: in data set [1], the “pharmacokinetic profiles (half-lives) compared with reference compound” value was “better than the reference compound” and the half-life is > 240 min. The pKi on NanoLuc-hACKR3 was ≥ 7.00. Also, the “target engagement compared with reference compound” value in the data set on CXCL12 is “comparable or better than the reference compound”. Also, the “Target engagement (CXCL12 fold-increase)” value in the data set on CXCL12 (blood 16 h after administration, CXCL12 ELISA) is “++ (>3 = ++)”. For the same compound, in data set [2], the half-life at 10 μM lay in the range of 120 to 240 min and the “metabolic stability compared with reference compound” value is given as “comparable or better than the reference compound”.
For the compound `O=C(NCC1CCN(C2CCCCC2)CC1)c1cc(-c2ccc(F)cc2F)on1` [Molecule 1, N-[(1-cyclohexylpiperidin-4-yl)methyl]-5-(2,4-difluorophenyl)-1,2-oxazole-3-carboxamide HCl], in data set [1], the “pharmacokinetic profiles (half-lives) compared with reference compound” value is “better than the reference compound” and the half-life is 120 to 240 min. The pKi at NanoLuc-hACKR3 is ≥ 7.00. The “target engagement compared with reference compound” value in the data set with CXCL12 is listed as “comparable or better than the reference compound”. In data set [2], the half-life at 10 μM was > 600 min and the “metabolic stability compared with reference compound” value is reported as “comparable or better than the reference compound”.

These data come from patent publication US20250170117A1, “MODULATORS OF ACKR3 AND USES THEREOF” (InterAx Biotech AG, priority 2022, published 2025).
